Measured values as given in patent US20240124417A1, “COMPOUNDS USEFUL AS IMMUNOMODULATORS” (Bristol-Myers Squibb Company, priority 2019, published 2024).

target: T1, PD-1/PD-L1 (Homo sapiens, UniProt Q9NZQ7); test: PD-1/PD-L1 Homogenous Time-Resolved Fluorescence (HTRF) binding assay; details: PD-L1-His 10 nM, PD-1-Ig 20 nM
T1 construct: TVMV protease site linker (C); made in house; host or cells: HEK293T cells
Source text: The ability of the compounds of the invention to bind to PD-L1 was investigated using a PD-1/PD-L1 Homogenous Time-Resolved Fluorescence (HTRF) binding assay.
Homogenous Time-Resolved Fluorescence (HTRF) binding assay.
The interaction of PD-1 and PD-L1 can be assessed using soluble, purified preparations of the extracellular domains of the two proteins. The PD-1 and PD-L1 protein extracellular domains were expressed as fusion proteins with detection tags, for PD-1, the tag was the Fc portion of Immunoglobulin (PD-1-Ig) and for PD-L1 it was the 6 histidine motif (PD-L1-His). All binding studies were performed in an HTRF assay buffer consisting of dPBS supplemented with 0.1% […] bovine serum albumin and 0.05% (v/v) Tween-20. For the h/PD-L1-His binding assay, inhibitors were pre-incubated with PD-L1-His (10 nM final) for 15 m in 4 μl of assay buffer, followed by addition of PD-1-Ig (20 nM final) in 1 μl of assay buffer and further incubation for 15 m. HTRF detection was achieved using europium crypate-labeled anti-Ig (1 nM final) and allophycocyanin (APC) labeled anti-His (20 nM final). Antibodies were diluted in HTRF detection buffer and 5 μl was dispensed on top of the binding reaction. […] Additional binding assays were established between the human proteins PD-1-Ig/PD-L2-His (20 & 5 nM, respectively) and CD80-His/PD-L1-Ig (100 & 10 nM, respectively). […]

T1 sequence (Q9NZQ7 18-239): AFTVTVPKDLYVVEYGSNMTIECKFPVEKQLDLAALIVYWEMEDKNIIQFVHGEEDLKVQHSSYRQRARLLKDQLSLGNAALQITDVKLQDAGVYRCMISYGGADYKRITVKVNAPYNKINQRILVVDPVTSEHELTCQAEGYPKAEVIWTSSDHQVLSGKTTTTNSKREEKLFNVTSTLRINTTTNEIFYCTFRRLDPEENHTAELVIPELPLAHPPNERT

How did the IC50 turn out when `Cc1c(COc2cc(OCc3cncc(C#N)c3)c(CNCc3cc[nH]n3)cc2Cl)cccc1-c1cccc(OCCCN2CC[C@@H](O)C2)c1C` [Example 2001, (R)-5-((2-((((1H-pyrazol-3-yl)methyl)amino)methyl)-4-chloro-5-((3′-(3-(3-hydroxypyrrolidin-1-yl)propoxy)-2,2′-dimethyl-[1,1′-biphenyl]-3-yl)methoxy)phenoxy)methyl)nicotinonitrile] was run?
The IC50 was 0.2 nM.

Which IC50 does the source give for `Cc1c(COc2cc(OCc3cncc(C#N)c3)c(CNCc3ncc[nH]3)cc2Cl)cccc1-c1cccc(OCCCN2CC[C@@H](O)C2)c1C` [Example 2004, (R)-5-((2-((((1H-imidazol-2-yl)methyl)amino)methyl)-4-chloro-5-((3′-(3-(3-hydroxypyrrolidin-1-yl)propoxy)-2,2′-dimethyl-[1,1′-biphenyl]-3-yl)methoxy)phenoxy)methyl)nicotinonitrile] here?
Its IC50 is 4.1 nM.

How did the IC50 turn out when `Cc1c(COc2cc(OCc3cncc(C#N)c3)c(CN(C)Cc3cn[nH]c3)cc2Cl)cccc1-c1cccc(OCCCN2CC[C@@H](O)C2)c1C` [Example 2525, (R)-5-((2-((((1H-pyrazol-4-yl)methyl)(methyl)amino)methyl)-4-chloro-5-((3′-(3-(3-hydroxypyrrolidin-1-yl)propoxy)-2,2′-dimethyl-[1,1′-biphenyl]-3-yl)methoxy)phenoxy)methyl)nicotinonitrile] was run?
Its IC50 is 2.2 nM.

`CC(=O)NC1CCN(CCCOc2cccc(-c3cccc(COc4cc(OCc5cncc(C#N)c5)c(CN5CCC(c6nnn[nH]6)C5)cc4Cl)c3C)c2C)CC1` (stereo not shown) [Example 1042, N-(1-(3-((3′-((4-((3-(1H-Tetrazol-5-yl)pyrrolidin-1-yl)methyl)-2-chloro-5-((5-cyano-pyridin-3-yl)methoxy)phenoxy)methyl)-2,2′-dimethyl-[1,1′-biphenyl]-3-yl)oxy)propyl)-piperidin-4-yl)acetamide] was tested. Which IC50 did it give?
The IC50 was 0.2 nM.

`Cc1c(COc2cc(OCc3cncc(C#N)c3)c(CN3CCc4cn[nH]c4C3)cc2Cl)cccc1-c1cccc(OCC2CCCN(C)C2)c1Cl` (stereo not shown) [Example 2589, 5-((4-chloro-5-((2′-chloro-2-methyl-3′-((1-methylpiperidin-3-yl)methoxy)-[1,1′-biphenyl]-3-yl)methoxy)-2-((1,4,5,7-tetrahydro-6H-pyrazolo[3,4-c]pyridin-6-yl)methyl)phenoxy)methyl)nicotinonitrile] was tested. Which IC50 did it give?
Its IC50 is 7.9 nM.

For `CC(=O)NC1CCN(CCCOc2cccc(-c3cccc(COc4cc(OCc5cncc(C#N)c5)c(CNC(C)c5nnn[nH]5)cc4Cl)c3C)c2C)CC1` (stereo not shown) [Example 1043, N-(1-(3-((3′-((4-(((1-(1H-Tetrazol-5-yl)ethyl)amino)methyl)-2-chloro-5-((5-cyanopyridin-3-yl)methoxy)phenoxy)methyl)-2,2′-dimethyl-[1,1′-biphenyl]-3-yl)oxy)propyl)piperidin-4-yl)acetamide], which IC50 is on record?
The IC50 was 3.1 nM.

Which IC50 does the source give for `Cc1c(COc2cc(OCc3cncc(C#N)c3)c(CN3CCCCC3c3nc(=O)[nH][nH]3)cc2Cl)cccc1-c1cccc(OCCCN2CC[C@@H](O)C2)c1C` (stereo partly drawn) [Example 1010, 5-((4-Chloro-5-((3′-(3-((R)-3-hydroxypyrrolidin-1-yl)propoxy)-2,2′-dimethyl-[1,1′-biphenyl]-3-yl)methoxy)-2-((2-(5-oxo-2,5-dihydro-1H-1,2,4-triazol-3-yl)piperidin-1-yl)-methyl)phenoxy)methyl)nicotinonitrile] here?
Its IC50 is 5.3 nM.

Which IC50 does the source give for `CC(=O)NC1CCN(CCCOc2cccc(-c3cccc(COc4cc(OCc5cncc(C#N)c5)c(CN5CCCCC5c5nnn[nH]5)cc4Cl)c3C)c2Cl)CC1` (stereo not shown) [Example 1055, N-(1-(3-((3′-((4-((2-(1H-Tetrazol-5-yl)piperidin-1-yl)methyl)-2-chloro-5-((5-cyano-pyridin-3-yl)methoxy)phenoxy)methyl)-2-chloro-2′-methyl-[1,1′-biphenyl]-3-yl)oxy)-propyl)-piperidin-4-yl)acetamide] here?
The IC50 was 1.2 nM.

For `Cc1c(COc2cc(OCc3cncc(C#N)c3)c(CNCC(C)c3nnn[nH]3)cc2Cl)cccc1-c1cccc(OCCCN2CC[C@@H](O)C2)c1C` (stereo partly drawn) [Example 1013, 5-((2-(((2-(1H-Tetrazol-5-yl)propyl)amino)methyl)-4-chloro-5-((3′-(3-((R)-3-hydroxy-pyrrolidin-1-yl)propoxy)-2,2′-dimethyl-[1,1′-biphenyl]-3-yl)methoxy)phenoxy)methyl)-nicotinonitrile], which IC50 is on record?
The IC50 was 3.2 nM.

For `Cc1c(COc2cc(OCc3cncc(C#N)c3)c(CN(C)Cc3ncn[nH]3)cc2Cl)cccc1-c1cccc(OCCCN2CC[C@@H](O)C2)c1C` [Example 2006, (R)-5-((2-((((1H-1,2,4-triazol-5-yl)methyl)(methyl)amino)methyl)-4-chloro-5-((3′-(3-(3-hydroxypyrrolidin-1-yl)propoxy)-2,2′-dimethyl-[1,1′-biphenyl]-3-yl)methoxy)phenoxy)methyl)nicotinonitrile], which IC50 is on record?
Its IC50 is 0.2 nM.

`Cc1c(COc2cc(OCc3cncc(C#N)c3)c(CNCc3ncc4ccccn34)cc2Cl)cccc1-c1cccc(OCC2CCCN(C)C2)c1Cl` (stereo not shown) [Example 2623, 5-((4-chloro-5-((2′-chloro-2-methyl-3′-((1-methylpiperidin-3-yl)methoxy)-[1,1′-biphenyl]-3-yl)methoxy)-2-(((imidazo[1,5-a]pyridin-3-ylmethyl)amino)methyl)phenoxy)methyl)nicotinonitrile] was tested. Which IC50 did it give?
Its IC50 is 6.1 nM.

With `Cc1c(COc2cc(OCc3cncc(C#N)c3)c(CNCc3ccnn3C)cc2Cl)cccc1-c1cccc(OCCCN2CC[C@@H](O)C2)c1C` [Example 2556, (R)-5-((4-chloro-5-((3′-(3-(3-hydroxypyrrolidin-1-yl)propoxy)-2,2′-dimethyl-[1,1′-biphenyl]-3-yl)methoxy)-2-((((1-methyl-1H-pyrazol-5-yl)methyl)amino)methyl)phenoxy)methyl)nicotinonitrile] as the compound, how does the IC50 read?
Its IC50 is 0.8 nM.

With `Cc1c(COc2cc(OCc3cncc(C#N)c3)c(CNCc3ncc[nH]3)cc2Cl)cccc1-c1cccc(OCCCN2CCC(O)(CO)CC2)c1Cl` [Example 2011, 5-((2-((((1H-imidazol-2-yl)methyl)amino)methyl)-4-chloro-5-((2′-chloro-3′-(3-(4-hydroxy-4-(hydroxymethyl)piperidin-1-yl)propoxy)-2-methyl-[1,1′-biphenyl]-3-yl)methoxy)phenoxy)methyl)nicotinonitrile] as the compound, how does the IC50 read?
The IC50 was 2.8 nM.

How did the IC50 turn out when `Cc1c(COc2cc(OCc3cncc(C#N)c3)c(CNCc3ccccn3)cc2Cl)cccc1-c1cccc(OCCCN2CC[C@@H](O)C2)c1C` [Example 2017, (R)-5-((4-chloro-5-((3′-(3-(3-hydroxypyrrolidin-1-yl)propoxy)-2,2′-dimethyl-[1,1′-biphenyl]-3-yl)methoxy)-2-(((pyridin-2-ylmethyl)amino)methyl)phenoxy)methyl)nicotinonitrile] was run?
Its IC50 is 2.1 nM.

With `Cc1c(COc2cc(OCc3cncc(C#N)c3)c(CNCCc3nc4cc(Cl)ccc4[nH]3)cc2Cl)cccc1-c1cccc(OCCCN2CC[C@@H](O)C2)c1C` [Example 2516, (R)-5-((4-chloro-2-(((2-(5-chloro-1H-benzo[d]imidazol-2-yl)ethyl)amino)methyl)-5-((3′-(3-(3-hydroxypyrrolidin-1-yl)propoxy)-2,2′-dimethyl-[1,1′-biphenyl]-3-yl)methoxy)phenoxy)methyl)nicotinonitrile] as the compound, how does the IC50 read?
Its IC50 is 4.5 nM.

How did the IC50 turn out when `Cc1c(COc2cc(OCc3cncc(C#N)c3)c(CN3CCCC(c4cc[nH]n4)C3)cc2Cl)cccc1-c1cccc(OCCCN2CC[C@@H](O)C2)c1C` (stereo partly drawn) [Example 2568, 5-((2-((3-(1H-pyrazol-3-yl)piperidin-1-yl)methyl)-4-chloro-5-((3′-(3-((R)-3-hydroxypyrrolidin-1-yl)propoxy)-2,2′-dimethyl-[1,1′-biphenyl]-3-yl)methoxy)phenoxy)methyl)nicotinonitrile] was run?
Its IC50 is 2.5 nM.

With `Cc1c(COc2cc(OCc3cncc(C#N)c3)c(CN3CCCCC3c3cn[nH]c3)cc2Cl)cccc1-c1cccc(OCCCN2CC[C@@H](O)C2)c1C` (stereo partly drawn) [Example 1011, 5-((2-((2-(1H-Pyrazol-4-yl)piperidin-1-yl)methyl)-4-chloro-5-((3′-(3-((R)-3-hydroxy-pyrrolidin-1-yl)propoxy)-2,2′-dimethyl-[1,1′-biphenyl]-3-yl)methoxy)phenoxy)methyl)-nicotinonitrile] as the compound, how does the IC50 read?
The IC50 was 17.5 nM.

Which IC50 does the source give for `COc1cc(OCc2cccc(-c3cccc(OCC4CCCN(C)C4)c3Cl)c2C)c(Cl)cc1CNCc1ncc[nH]1` (stereo not shown) [Example 2057, N-((1H-imidazol-2-yl)methyl)-1-(5-chloro-4-((2′-chloro-2-methyl-3′-((1-methylpiperidin-3-yl)methoxy)-[1,1′-biphenyl]-3-yl)methoxy)-2-methoxyphenyl)methanamine] here?
The IC50 was 6.3 nM.

How did the IC50 turn out when `Cc1c(COc2cc(OCc3cncc(C#N)c3)c(CN3CCCC(c4cnn(C)c4)C3)cc2Cl)cccc1-c1cccc(OCC2CCCN(C)C2)c1Cl` (stereo not shown) [Example 1023, 5-((4-Chloro-5-((2′-chloro-2-methyl-3′-((1-methylpiperidin-3-yl)methoxy)-[1,1′-biphenyl]-3-yl)methoxy)-2-((3-(1-methyl-1H-pyrazol-4-yl)piperidin-1-yl)methyl)-phenoxy)methyl)nicotinonitrile] was run?
Its IC50 is 0.2 nM.
